Target: human GPR119 (Homo sapiens (Human), UniProt Q8TDV5)
Experiment: AlphaScreen cAMP assay in MIN6 cells stably transfected with human GPR119
Type: cell-based
Conditions: Min-6/hGPR119 cells, 45 min incubation at room temperature
Experimental: The compounds of formula I according to the invention modulate the activity of the G-protein-coupled receptor GPR119. The effect of the compounds on the activation of GPR119 and on the stimulation of intracellular cAMP concentration is determined using the AlphaScreen cAMP Assay Kit (Cat. No. #6760625R) made by PerkinElmer.
MIN6 cells [Miyazaki J et al. Endocrinology. 1990 July; 127(1):126-32] are stably transfected with an expression vector for human GPR119 cDNA (Acc. No. NP_848566). Min-6/hGPR119 cells are cultured in DMEM, 10% FBS, 50 μM β-mercaptoethanol, 0.3 mg/mL Geniticin, 2 mM GlutaMAX at 37° C. 5% CO2. For the assay, the cells are seeded in Optiplates (white, 384-well, 160W-barcoded, TC, sterile with lid, Cat. No. #6007688 (Perkin Elmer); 10000 cells/well; 50 μl). The plates covered with lids are then incubated for 24 hours at 37° C./5% CO2. After the medium is aspirated from the wells completely, 10 μl of the test compound are added, the compounds are diluted using stimulating buffer (140 mM NaCl, 3.6 mM KCl, 0.5 mM NaH2PO4, 0.5 mM MgSO4, 1.5 mM CaCl2, 10 mM Hepes, 5 mM NaHCO3; pH 7.4. 0.5 mM IBMX and 0.1% BSA, the final DMSO concentration is 1%). After 45 minutes incubation at room temperature (approx. 20° C.), the cAMP concentrations are determined using the AlphaScreen cAMP Assay Kit (Cat. No. #6760625R from PerkinElmer).

Chain of human GPR119 (Q8TDV5 whole entry): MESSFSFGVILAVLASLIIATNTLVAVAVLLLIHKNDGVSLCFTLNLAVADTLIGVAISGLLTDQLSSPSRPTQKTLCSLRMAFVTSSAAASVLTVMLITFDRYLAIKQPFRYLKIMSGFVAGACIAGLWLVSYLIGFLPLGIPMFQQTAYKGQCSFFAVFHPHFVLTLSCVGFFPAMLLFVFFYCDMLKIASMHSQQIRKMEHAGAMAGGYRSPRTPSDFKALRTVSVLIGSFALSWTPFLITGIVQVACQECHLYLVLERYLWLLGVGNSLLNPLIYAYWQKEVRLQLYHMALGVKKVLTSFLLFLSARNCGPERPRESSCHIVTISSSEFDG

EC50	SMILES
80 nM	CCCOC(=O)N1CCC(N(C(=O)c2ccc(-c3cnco3)cc2)C2CC2)CC1 [Example 123, 4-[Cyclopropyl-(4-oxazol-5-yl-benzoyl)-amino]-piperidine-1-carboxylic acid propyl ester]
651 nM	CC(C)(C)OC(=O)N1CCC(N(C(=O)c2ccc(-c3cccnc3)cc2)C2CC2)CC1 [Example 75, 4-[Cyclopropyl-(4-pyridin-3-yl-benzoyl)-amino]-piperidine-1-carboxylic acid tert-butyl ester]
85 nM	Cc1noc(C)c1-c1ccc(C(=O)N(C2CC2)C2CCN(C(=O)OC(C)(C)C)CC2)cc1 [Example 95, 4-{Cyclopropyl-[4-(3,5-dimethyl-isoxazol-4-yl)-benzoyl]-amino}-piperidine-1-carboxylic acid tert-butyl ester]
88 nM	O=C(Oc1ccccc1)N1CCC(N(C(=O)c2ccc(-c3cnco3)cc2)C2CC2)CC1 [Example 124, 4-[Cyclopropyl-(4-oxazol-5-yl-benzoyl)-amino]-piperidine-1-carboxylic acid phenyl ester]
316 nM	Cc1nc(-c2ccc(C(=O)N(C3CC3)C3CCN(C(=O)OC(C)(C)C)CC3)cc2)no1 [Example 67, 4-{Cyclopropyl-[4-(5-methyl-[1,2,4]oxadiazol-3-yl)-benzoyl]-amino}-piperidine-1-carboxylic acid tert-butyl ester]
34 nM	O=C(OC1CCCC1)N1CCC(N(C(=O)c2ccc(-c3cnco3)cc2)C2CC2)CC1 [Example 128, 4-[Cyclopropyl-(4-oxazol-5-yl-benzoyl)-amino]-piperidine-1-carboxylic acid cyclopentyl ester]
34 nM	CC(C)(C)OC(=O)N1CCC(N(C(=O)c2ccc(-c3ccc(C#N)nc3)cc2)C2CC2)CC1 [Example 100, 4-{[4-(6-Cyano-pyridin-3-yl)-benzoyl]-cyclopropyl-amino}-piperidine-1-carboxylic acid tert-butyl ester]
402 nM	CNC(=O)Nc1nnc(-c2ccc(C(=O)N(C3CC3)C3CCN(C(=O)OC(C)(C)C)CC3)cc2)s1 [Example 82, 4-(Cyclopropyl-{4-[5-(3-methyl-ureido)-[1,3,4]thiadiazol-2-yl]-benzoyl}-amino)-piperidine-1-carboxylic acid tert-butyl ester]
461 nM	CC(C)(C)OC(=O)N1CCC(N(C(=O)c2ccc(-c3ccc(O)nc3)cc2)C2CC2)CC1 [Example 108, 4-{Cyclopropyl-[4-(6-hydroxy-pyridin-3-yl)-benzoyl]-amino}-piperidine-1-carboxylic acid tert-butyl ester]
128 nM	O=C(OCc1ccccc1)N1CCC(N(C(=O)c2ccc(-c3cnco3)cc2)C2CC2)CC1 [Example 126, 4-[Cyclopropyl-(4-oxazol-5-yl-benzoyl)-amino]-piperidine-1-carboxylic acid benzyl ester]
256 nM	CCOc1ccc(-c2ccc(C(=O)N(C3CC3)C3CCN(C(=O)OC(C)(C)C)CC3)cc2)cc1 [Example 87, 4-[Cyclopropyl-(4′-ethoxy-biphenyl-4-carbonyl)-amino]-piperidine-1-carboxylic acid tert-butyl ester]
333 nM	CC(=O)NCc1ccc(-c2ccc(C(=O)N(C3CC3)C3CCN(C(=O)OC(C)(C)C)CC3)cc2)cc1 [Example 104, 4-{[4′-(Acetylamino-methyl)-biphenyl-4-carbonyl]-cyclopropyl-amino}-piperidine-1-carboxylic acid tert-butyl ester]

Continued, molecule first:

SMILES	EC50
CC(C)(C)OC(=O)N1CCC(N(C(=O)c2ccc(-c3ccc(S(C)(=O)=O)cn3)cc2)C2CC2)CC1 [Example 21, 4-{Cyclopropyl-[4-(5-methanesulfonyl-pyridin-2-yl)-benzoyl]-amino}-piperidine-1-carboxylic acid tert-butyl ester]	74 nM
CC(C)OC(=O)N1CCC(N(C(=O)c2ccc(-c3ccncc3C#N)cc2)C2CC2)CC1 [Example 31, 4-{[4-(3-Cyano-pyridin-4-yl)-benzoyl]-cyclopropyl-amino}-piperidine-1-carboxylic acid isopropyl ester]	49 nM
Cn1cnc(-c2ccc(C(=O)N(C3CC3)C3CCN(C(=O)OC(C)(C)C)CC3)cc2)n1 [Example 17, 4-{Cyclopropyl-[4-(1-methyl-1H-[1,2,4]triazol-3-yl)-benzoyl]-amino}-piperidine-1-carboxylic acid tert-butyl ester]	2220 nM
CC(C)(C)OC(=O)N1CCC(N(C(=O)c2ccc(-c3cncs3)cc2)C2CC2)CC1 [Example 6, 4-[Cyclopropyl-(4-thiazol-5-yl-benzoyl)-amino]-piperidine-1-carboxylic acid tert-butyl ester]	32 nM
CC1(OC(=O)N2CCC(N(C(=O)c3ccc(-c4cnco4)cc3)C3CC3)CC2)CC1 [Example 20, 4-[Cyclopropyl-(4-oxazol-5-yl-benzoyl)-amino]-piperidine-1-carboxylic acid 1-methyl-cyclopropyl ester]	52 nM
Cc1ncoc1-c1ccc(C(=O)N(C2CC2)C2CCN(C(=O)OC(C)(C)C)CC2)cc1 [Example 10, 4-{Cyclopropyl-[4-(4-methyl-oxazol-5-yl)-benzoyl]-amino}-piperidine-1-carboxylic acid tert-butyl ester]	75 nM
CC(C)(C)OC(=O)N1CCC(N(C(=O)c2ccc(-c3nnc(N)s3)cc2)C2CC2)CC1 [Example 66, 4-{[4-(5-Amino-[1,3,4]thiadiazol-2-yl)-benzoyl]-cyclopropyl-amino}-piperidine-1-carboxylic acid tert-butyl ester]	875 nM
COC(=O)c1ccc(-c2ccc(C(=O)N(C3CC3)C3CCN(C(=O)OC(C)(C)C)CC3)cc2)cn1 [Example 107, 5-{4-[(1-tert-Butoxycarbonyl-piperidin-4-yl)-cyclopropyl-carbamoyl]-phenyl}-pyridine-2-carboxylic acid methyl ester]	66 nM
CC(C)(C)OC(=O)N1CCC(N(C(=O)c2ccc(-n3cncn3)cc2)C2CC2)CC1 [Example 63, 4-[Cyclopropyl-(4-[1,2,4]triazol-1-yl-benzoyl)-amino]-piperidine-1-carboxylic acid tert-butyl ester]	127 nM
CC(C)(O)COC(=O)N1CCC(N(C(=O)c2ccc(-c3cnco3)cc2)C2CC2)CC1 [Example 15, 4-[Cyclopropyl-(4-oxazol-5-yl-benzoyl)-amino]-piperidine-1-carboxylic acid 2-hydroxy-2-methyl-propyl ester]	4460 nM
CC(C)(C)OC(=O)N1CCC(N(C(=O)c2ccc(-c3cocn3)cc2)C2CC2)CC1 [Example 44, 4-[Cyclopropyl-(4-oxazol-4-yl-benzoyl)-amino]-piperidine-1-carboxylic acid tert-butyl ester]	298 nM
CC(C)(C)OC(=O)N1CCC(N(C(=O)c2ccc(-c3cnco3)c(F)c2)C2CC2)CC1 [Example 28, 4-[Cyclopropyl-(3-fluoro-4-oxazol-5-yl-benzoyl)-amino]-piperidine-1-carboxylic acid tert-butyl ester]	8 nM
CC(C)(C)OC(=O)N1CCC(N(C(=O)c2ccc(-c3cccs3)cc2)C2CC2)CC1 [Example 58, 4-[Cyclopropyl-(4-thiophen-2-yl-benzoyl)-amino]-piperidine-1-carboxylic acid tert-butyl ester]	214 nM
Cc1nnnn1-c1ccc(C(=O)N(C2CC2)C2CCN(C(=O)OC(C)(C)C)CC2)cc1 [Example 26, 4-{Cyclopropyl-[4-(5-methyl-tetrazol-1-yl)-benzoyl]-amino}-piperidine-1-carboxylic acid tert-butyl ester]	224 nM
Cc1nnc(-c2ccc(C(=O)N(C3CC3)C3CCN(C(=O)OC(C)(C)C)CC3)cc2)o1 [Example 61, 4-{Cyclopropyl-[4-(5-methyl-[1,3,4]oxadiazol-2-yl)-benzoyl]-amino}-piperidine-1-carboxylic acid tert-butyl ester]	513 nM
Cn1ncnc1-c1ccc(C(=O)N(C2CC2)C2CCN(C(=O)OC(C)(C)C)CC2)cc1 [Example 18, 4-{Cyclopropyl-[4-(2-methyl-2H-[1,2,4]triazol-3-yl)-benzoyl]-amino}-piperidine-1-carboxylic acid tert-butyl ester]	1000 nM
CC(C)(C)OC(=O)N1CCC(N(C(=O)c2ccc(-c3cnco3)c(N)c2)C2CC2)CC1 [Example 8, 4-[(3-Amino-4-oxazol-5-yl-benzoyl)-cyclopropyl-amino]-piperidine-1-carboxylic acid tert-butyl ester]	169 nM
Cn1cncc1-c1ccc(C(=O)N(C2CC2)C2CCN(C(=O)OC(C)(C)C)CC2)cc1 [Example 42, 4-{Cyclopropyl-[4-(3-methyl-3H-imidazol-4-yl)-benzoyl]-amino}-piperidine-1-carboxylic acid tert-butyl ester]	152 nM
Cc1cn(-c2ccc(C(=O)N(C3CC3)C3CCN(C(=O)OC(C)(C)C)CC3)cc2)c(C)n1 [Example 55, 4-{Cyclopropyl-[4-(2,4-dimethyl-imidazol-1-yl)-benzoyl]-amino}-piperidine-1-carboxylic acid tert-butyl ester]	927 nM

— patent US9469631B2 (Boehringer Ingelheim International GmbH, priority 2012, dated 2016)
